In patent publication US12527782B2, “Use of hexokinase 2/mitochondria-detaching compounds for treating hexokinase-2 (HK2)-expressing cancers” (Vidac Pharma Ltd., priority 2016, dated 2026):

Assays:
HeLa cells [1] = test: Lactate levels in culture media of HeLa cells (BioVision kit); type: cell-based; details: 20 μM
Experimental: FIG. 14. Lactate levels in the culture media of HeLa cells incubated with 20 μM Compound (1). Lactate levels were assayed with a BioVision kit (Catalog #K607-100).

HeLa cells [2] = test: Apoptosis induction in HeLa cells (FACS, propidium iodide and annexin V); type: cell-based; details: Homo sapiens, 48 hr incubation
Experimental: FIG. 12. Apoptosis induction in HeLa cells following 48 hr incubation with Compound (1) IC50=70 nM. Apoptosis was evaluated by FACS, labeling the cells with propidium iodide and annexin V.
FIG. 13. Apoptosis induction in HeLa cells following 48 hr incubation with Compound (1). IC50=70 nM. Apoptosis was evaluated by FACS, labeling the cells with propidium iodide and annexin V.

IC50 (HeLa cells [2]): 70 nM
SMILES: O=C(N1CCN(c2ccccc2)CC1)N1c2ccccc2Oc2ccccc21 [Compound (1)]
lactate levels in the culture media (HeLa cells [1]): lowered lactate levels
